Measurements reported in patent US9403801B2 (Calitor Sciences, LLC, priority 2014, dated 2016).
pIC50: −log10 of the molar value.

What was measured:
JAK2 (h) = JAK2 (h) (Homo sapiens (Human), UniProt O60674); assay: JAK2 kinase assay (33P-ATP filter binding, Millipore); type: biochemical
Procedure: (§1) Kinase assays can be performed by measurement of incorporation of γ-^33P ATP into immobilized myelin basic protein (MBP). High binding white 384 well plates (Greiner) are coated with MBP (Sigma #M−1891) by incubation of 60 μL/well of 20 μg/mL MBP in Tris-buffered saline (TBS; 50 mM Tris pH 8.0, 138 mM NaCl, 2.7 mM KCl) for 24 h at 4° C. Plates are washed 3× with 100 μL TBS. Kinase reactions are carried out in a total volume of 34 μL in kinase buffer (5 mM Hepes pH 7.6, 15 mM NaCl, 0.01% bovine gamma globulin (Sigma #I-5506), 10 mM MgCl2, 1 mM DTT, 0.02% TritonX-100). Compound dilutions are performed in DMSO and added to assay wells to a final DMSO concentration of 1%. Each data point is measured in duplicate, and at least two duplicate assays are performed for each individual compound determination. Enzyme is added to final concentrations of 10 nM or 20 nM, for example. A mixture of unlabeled ATP and γ-^33P ATP is added to start the reaction (2×10^6 cpm of γ-^33P ATP per well (3000 Ci/mmole) and 10 μM unlabeled ATP, typically. The reactions are carried out for 1 h at room temperature with shaking. Plates are washed 7× with TBS, followed by the addition of 50 μL/well scintillation fluid (Wallac). Plates are read using a Wallac Trilux counter. This is only one format of such assays; various other formats are possible, as known to one skilled in the art.
(§2) The above assay procedure can be used to determine the IC50 for inhibition and/or the inhibition constant, Ki. The IC50 is defined as the concentration of compound required to reduce the enzyme activity by 50% under the condition of the assay. The IC50 value is estimated by preparing a 10 point curve using a 1/2 log dilution series (for example, a typical curve may be prepared using the following compound concentrations: 3 μM, 1 μM, 0.3 μM, 0.1 μM, 0.03 μM, 0.01 μM, 0.003 μM, 0.001 μM, 0.0003 μM and 0 μM).
(§3) The kinase assays described herein were performed at Millipore UK Ltd, Dundee Technology Park, Dundee DD2 1SW, UK.

JAK1 (h) = JAK1 (h) (Homo sapiens (Human), UniProt P23458); assay: JAK1 kinase assay (33P-ATP filter binding, Millipore); type: biochemical
Sequence of JAK1 (h) (P23458 whole entry): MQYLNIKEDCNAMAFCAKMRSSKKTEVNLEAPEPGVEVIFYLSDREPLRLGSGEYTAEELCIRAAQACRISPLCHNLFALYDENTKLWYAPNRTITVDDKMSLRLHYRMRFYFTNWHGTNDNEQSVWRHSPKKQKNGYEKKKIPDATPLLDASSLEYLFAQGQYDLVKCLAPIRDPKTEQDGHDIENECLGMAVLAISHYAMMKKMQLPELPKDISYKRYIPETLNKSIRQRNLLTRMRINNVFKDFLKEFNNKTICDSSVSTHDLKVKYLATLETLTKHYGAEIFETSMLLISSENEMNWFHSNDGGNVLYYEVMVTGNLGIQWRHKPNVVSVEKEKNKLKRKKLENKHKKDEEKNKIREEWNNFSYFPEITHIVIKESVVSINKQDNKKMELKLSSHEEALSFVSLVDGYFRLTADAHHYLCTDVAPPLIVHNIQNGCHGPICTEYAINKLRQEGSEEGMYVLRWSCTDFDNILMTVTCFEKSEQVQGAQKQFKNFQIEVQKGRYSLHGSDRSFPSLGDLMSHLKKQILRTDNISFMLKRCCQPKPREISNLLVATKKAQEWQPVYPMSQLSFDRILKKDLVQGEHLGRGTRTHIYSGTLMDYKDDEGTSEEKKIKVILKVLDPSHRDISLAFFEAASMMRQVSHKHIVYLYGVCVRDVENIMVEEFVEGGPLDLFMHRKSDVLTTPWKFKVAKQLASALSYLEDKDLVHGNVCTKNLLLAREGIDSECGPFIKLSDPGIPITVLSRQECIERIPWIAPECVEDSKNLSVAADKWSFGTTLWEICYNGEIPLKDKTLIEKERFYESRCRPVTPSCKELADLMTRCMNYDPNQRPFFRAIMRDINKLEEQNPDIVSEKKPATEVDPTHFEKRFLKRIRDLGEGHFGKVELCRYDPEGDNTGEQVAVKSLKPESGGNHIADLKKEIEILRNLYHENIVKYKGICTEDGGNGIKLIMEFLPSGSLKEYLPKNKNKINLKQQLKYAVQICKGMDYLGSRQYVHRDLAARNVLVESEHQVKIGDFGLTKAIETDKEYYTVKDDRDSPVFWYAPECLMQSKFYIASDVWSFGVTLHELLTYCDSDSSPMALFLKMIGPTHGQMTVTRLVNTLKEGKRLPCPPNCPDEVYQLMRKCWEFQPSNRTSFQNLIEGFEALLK
Procedure: as §1, §2, §3

[1] = Compound stability in rat liver microsomes; type: in vitro ADME; conditions: for half-life at 5 μM: compound 5 μM, NADPH 1.0 mM, 37° C.; for CLint scaled at 5 μM: in vivo CLint extrapolated
Procedure: (§4) Human or rat liver microsomes incubations were conducted in duplicate in polypropylene tubes. The typical incubation mixtures consisted of human or rat liver microsomes (0.5 mg protein/mL), compounds of interest (5 μM) and NADPH (1.0 mM) in a total volume of 200 μL potassium phosphate buffer (PBS, 100 mM, pH 7.4). Compounds were dissolved in DMSO and diluted with PBS such that the final concentration of DMSO was 0.05%. The enzymatic reactions were commenced with the addition of protein after a 3-min preincubation and incubated in a water bath open to the air at 37° C. Reactions were terminated at various time points (0, 5, 10, 15, 30, 60 min) by adding equal volume of ice-cold acetonitrile. The samples were stored at −80° C. until LC/MS/MS assays.
(§5) The concentrations of compounds in the incubation mixtures of human or rat liver microsomes were determined by a LC/MS/MS method. The ranges of the linearity in the concentration range were determined for each tested compounds.
(§6) A parallel incubation was performed using denatured microsomes as the negative control, and reactions were terminated at various time points (0, 15, 60 min) after incubation at 37° C.
(§7) Dextromethorphan (70 μM) was selected as the positive control, and reactions were terminated at various time points (0, 5, 10, 15, 30, 60 min) after incubation at 37° C. Both positive and negative control samples were included in each assay to ensure the integrity of the microsomal incubation system.
(§8) The concentrations of compounds in human or rat liver microsome incubations were plotted as a percentage of the relevant zero time point control for each reaction. The in vivo CLint were extrapolated (ref.: Naritomi, Y.; Terashita, S.; Kimura, S.; Suzuki, A.; Kagayama, A.; and Sugiyama, Y.; Prediction of human hepatic clearance from in vivo animal experiments and in vitro metabolic studies with liver microsomes from animals and humans. Drug Metab. Dispos., 2001, 29: 1316-1324).

[2] = Compound stability in human liver microsomes; type: in vitro ADME; conditions: for half-life at 5 μM: compound 5 μM, NADPH 1.0 mM, 37° C.; for CLint scaled at 5 μM: in vivo CLint extrapolated
Procedure: as §4, §5, §6, §7, §8

[3] = Pharmacokinetics after intravenous and oral administration in rats; type: in vivo; conditions: for Clearance (CL) after iv dosing / AUC(0-t) / half-life / Vd: dose 1 mg/kg (Ex. 27: 0.72 mg/kg), iv dosing; for F: oral bioavailability; for AUC(0-t) / half-life / Vd: rat, plasma; for Vd: read-out: Vss
Procedure: The LC/MS/MS system used in the analysis consists of an Agilent 1200 Series vacuum degasser, binary pump, well-plate autosampler, thermostatted column compartment, the Agilent G6430 Triple Quadrupole Mass Spectrometer with an electrosprayionization (ESI) source. Quantitative analysis was carried out using MRM mode. The parameters for MRM transitions are in the Table A.
An Agilent XDB-C18, 2.1×30 mm, 3.5 μM column was used for the analysis. 5 μL of the samples were injected. Analysis condition: The mobile phase was 0.1% formic acid in water (A) and 0.1% formic acid in methanol (B). The flow rate was 0.4 mL/min. And the gradient of Mobile phase was in the Table B.
Alternatively, an Agilent 6330 series LC/MS/MS spectrometer equipped with G1312A binary pumps, a G1367A autosampler and a G1314C UV detector were used in the analysis. An ESI source was used on the LC/MS/MS spectrometer. The analysis was done in positive ion mode as appropriate and the MRM transition for each analyte was optimized using standard solution. A Capcell MP-C18 100×4.6 mm I.D., […] column (Phenomenex, Torrance, Calif., USA) was used during the analysis. The mobile phase was 5 mM ammonia acetate, 0.1% MeOH in water (A): 5 mM ammonia acetate, 0.1% MeOH in acetonitrile (B) (70:30, v/v). The flow rate was 0.6 mL/min. Column was maintained at ambient temperature. 20 μL of the samples were injected.
The compounds disclosed herein are assessed in pharmacokinetic studies in mice, rats, dogs or monkeys. The compounds are administered as a water solution, 2% HPMC+1% TWEEN®80 in water solution, 5% DMSO+5% solution in saline, 4% MC suspension or capsule. For the intravenous administration, the animals are generally given at 1 or 2 mg/kg dose. For the oral (p.o.) dosing, mice and rats are generally given 5 or 10 mg/kg dose, and dogs and monkeys are generally given 10 mg/kg dose. The blood samples (0.3 mL) are drawn at 0.25, 0.5, 1.0, 2.0, 3.0, 4.0, 6.0, 8.0, 12 and 24 h time points or 0.083, 0.25, 0.5, 1.0, 2.0, 4.0, 6.0, 8.0 and 24 h time points and centrifuged at 3,000 or 4000 rpm for 2 to 10 min. The plasma solutions are collected, and stored at −20° C. or −70° C. until analyzed by LC/MS/MS as described above.

[4] = pH 7.4, Rat liver microsomes 0.5 mg protein/mL
[5] = pH 7.4, Human liver microsomes 0.5 mg protein/mL

Sequence of JAK2 (h) (O60674 whole entry): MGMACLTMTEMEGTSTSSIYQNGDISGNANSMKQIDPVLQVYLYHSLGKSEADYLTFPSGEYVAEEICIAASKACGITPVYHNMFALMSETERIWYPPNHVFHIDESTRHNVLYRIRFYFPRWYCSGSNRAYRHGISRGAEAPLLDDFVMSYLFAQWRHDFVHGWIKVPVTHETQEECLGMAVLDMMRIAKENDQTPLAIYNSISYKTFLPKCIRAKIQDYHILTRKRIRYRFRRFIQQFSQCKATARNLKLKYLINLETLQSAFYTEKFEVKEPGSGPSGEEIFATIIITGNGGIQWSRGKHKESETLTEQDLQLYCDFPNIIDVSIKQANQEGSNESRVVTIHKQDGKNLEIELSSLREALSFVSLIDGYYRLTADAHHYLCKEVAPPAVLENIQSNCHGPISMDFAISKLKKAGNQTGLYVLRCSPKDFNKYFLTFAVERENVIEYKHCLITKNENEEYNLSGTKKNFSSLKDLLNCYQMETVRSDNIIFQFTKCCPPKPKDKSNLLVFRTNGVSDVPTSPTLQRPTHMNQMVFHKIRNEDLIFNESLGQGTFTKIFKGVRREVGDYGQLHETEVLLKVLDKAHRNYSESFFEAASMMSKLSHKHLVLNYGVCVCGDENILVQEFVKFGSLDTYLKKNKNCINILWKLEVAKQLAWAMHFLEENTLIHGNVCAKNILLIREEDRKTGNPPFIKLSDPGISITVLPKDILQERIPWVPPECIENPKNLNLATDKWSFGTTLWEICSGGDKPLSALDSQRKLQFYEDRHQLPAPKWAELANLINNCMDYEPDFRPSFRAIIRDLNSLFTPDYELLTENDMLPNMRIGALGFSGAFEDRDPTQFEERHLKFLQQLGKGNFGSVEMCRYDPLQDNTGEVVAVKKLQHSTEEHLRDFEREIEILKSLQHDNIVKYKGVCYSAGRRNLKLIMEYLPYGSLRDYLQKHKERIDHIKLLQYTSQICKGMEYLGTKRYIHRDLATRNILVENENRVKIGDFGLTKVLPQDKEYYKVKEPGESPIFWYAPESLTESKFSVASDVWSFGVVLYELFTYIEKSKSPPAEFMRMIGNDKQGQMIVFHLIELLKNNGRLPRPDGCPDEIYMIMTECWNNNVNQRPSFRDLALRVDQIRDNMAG

SMILES	pIC50 (JAK2 (h))	pIC50 (JAK1 (h))	half-life at 5 μM [1, 4] [min]	CLint scaled at 5 μM ([1]; pH 7.4, Rat liver microsomes) [mL/min/kg]	half-life at 5 μM [2, 5] [min]	CLint scaled at 5 μM ([2]; pH 7.4, Human liver microsomes) [mL/min/kg]	Clearance (CL) after iv dosing [3] [mL/min/kg]	F [3] [%]	AUC(0-t) [3] [ng·h/mL]	half-life [3] [min]	Vd [3] [L/kg]	other results
Cn1cc(Nc2ncc(Cl)c(NC3CCC4(CC3)CCN(C(=O)CC#N)CC4)n2)cn1 [Ex. 26, 3-(9-((5-chloro-2-((1-methyl-1H-pyrazol-4-yl)amino)pyrimidin-4-yl)amino)-3-azaspiro[5.5]undecan-3-yl)-3-oxopropanenitrile]	8.22	8.70										
CN(c1nc(Nc2cnn(C)c2)ncc1Cl)C1CCC2(CCCN(C(=O)CC#N)C2)C1 (stereo not shown)	8.15	8.52										
Cn1cc(Nc2ncc(Cl)c(NC3CC4CN(CC(F)(F)F)CC4C3)n2)cn1 (stereo not shown) [Ex. 35, 5-chloro-N^2-(1-methyl-1H-pyrazol-4-yl)-N^4-(2-(2,2,2-trifluoroethyl)octahydrocyclopenta[c]pyrrol-5-yl)pyrimidine-2,4-diamine]	8.10	8.70	2.72	913	6.65	261						
Cc1cnc(Nc2cnn(C)c2)nc1NC1CCC2(CC1)CCN(C(=O)CC#N)C2 (stereo not shown) [Ex. 10, 3-(8-((5-methyl-2-((1-methyl-1H-pyrazol-4-yl)amino)pyrimidin-4-yl)amino)-2-azaspiro[4.5]decan-2-yl)-3-oxopropanenitrile]	6.89	8.15										half-life at 5 μM ([1]; rat, liver microsomes, pH 7.4, Rat liver microsomes 0.5 mg protein/mL): 52.6 min; CLint scaled at 5 μM ([1]; rat, liver microsomes, pH 7.4, Rat liver microsomes): 47.2 mL/min/kg; half-life at 5 μM ([2]; human, liver microsomes, pH 7.4, Human liver microsomes 0.5 mg protein/mL): 1510 min; CLint scaled at 5 μM ([2]; human, liver microsomes, pH 7.4, Human liver microsomes): 1.15 mL/min/kg
N#CCC(=O)N1CC2CC(Nc3nc(Nc4cnn(CCO)c4)ncc3Cl)CC2C1 (stereo not shown) [Ex. 44, 3-(5-((5-chloro-2-((1-(2-hydroxyethyl)-1H-pyrazol-4-yl)amino)pyrimidin-4-yl)amino)hexahydrocyclopenta[c]pyrrol-2(1H)-yl)-3-oxopropanenitrile]		7.24	398	6.24	243	7.15	49.3	12.0	343	33	1.09	
Cn1cc(Nc2ncc(Cl)c(NC3CCC4(CCNC4)CC3)n2)cn1 (single isomer, unassigned) [Ex. 13.3A, 5-chloro-N^2-(1-methyl-1H-pyrazol-4-yl)-N^4-(2-azaspiro[4.5]decan-8-yl)pyrimidine-2,4-diamine]	7.26	8.70										
Cn1cc(Nc2ncc(Cl)c(NC3CCC4(CCNC4)CC3)n2)cn1 (single isomer, unassigned) [Ex. 13.3B, 5-chloro-N^2-(1-methyl-1H-pyrazol-4-yl)-N^4-(2-azaspiro[4.5]decan-8-yl)pyrimidine-2,4-diamine]	7.85	8.70										
Cn1cc(Nc2ncc(Cl)c(NC3CC4CN(c5ccc(C#N)cn5)CC4C3)n2)cn1 (stereo not shown) [Ex. 33, 6-(5-((5-chloro-2-((1-methyl-1H-pyrazol-4-yl)amino)pyrimidin-4-yl)amino)hexahydrocyclopenta[c]pyrrol-2(1H)-yl)nicotinonitrile]	8.52	9.40					24.8	60.4	702	147	3.33	
Cc1c(Nc2ncc(Cl)c(NC3CC4CN(C(=O)CC#N)CC4C3)n2)cnn1C (stereo not shown) [Ex. 66, 3-(5-((5-chloro-2-((1,5-dimethyl-1H-pyrazol-4-yl)amino)pyrimidin-4-yl)amino)hexahydrocyclopenta[c]pyrrol-2(1H)-yl)-3-oxopropanenitrile]		8.15	21.2	117	81.5	21.3	81.8	21.0	201	16.2	2.28	
CN(c1nc(Nc2cnn(C)c2)ncc1Cl)C1CC2CN(C(=O)CC#N)CC2C1 (stereo not shown) [Ex. 69, 3-(5-((5-chloro-2-((1-methyl-1H-pyrazol-4-yl)amino)pyrimidin-4-yl)(methyl)amino)hexahydrocyclopenta[c]pyrrol-2(1H)-yl)-3-oxopropanenitrile]		7.82	12.2	204	95.6	18.2	65.2	56.2	281	28.2	1.19	
Cn1cnc(Nc2ncc(Cl)c(NC3CC4CN(C(=O)CC#N)CC4C3)n2)c1 (stereo not shown) [Ex. 41]	6.43	7.70										
CN(c1nc(Nc2cnn(C)c2)ncc1Cl)C1CCC2(CC1)CCN(C(=O)CC#N)CC2 [Ex. 24, 3-(9-((5-chloro-2-((1-methyl-1H-pyrazol-4-yl)amino)pyrimidin-4-yl)(methyl)amino)-3-azaspiro[5.5]undecan-3-yl)-3-oxopropanenitrile]	7.41	7.72										
